Measurements reported in ChEMBL document CHEMBL1201862, “PubChem BioAssay data set” (2004).
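Growth conditions: 96-well plates. Treatment: test compound, 48 hours, 5 concentrations. Analysis: linear interpolation between bracketing concentrations; unreached endpoints set to highest concentration. Abbreviation: GI50, concentration required for 50% inhibition of growth.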 Calls of active or inactive are those of the source. Cut-off read from the data, not from the text of the source: active = GI50 up to about 1.1 µM and inactive = higher.

Experiments:
Experiment in all cases: DTP human tumour cell line panel, 48 h
COLO 205 = test system: COLO 205
TK-10 = test system: TK-10
T47D = test system: T47D
ACHN = test system: ACHN
OVCAR-5 = test system: OVCAR-5
HCT-116 = test system: HCT-116
MCF7 = test system: MCF7
EKVX = test system: EKVX
UACC-62 = test system: UACC-62
UO-31 = test system: UO-31
MDA-MB-231 = test system: MDA-MB-231
OVCAR-4 = test system: OVCAR-4
DU-145 = test system: DU-145
CCRF-CEM = test system: CCRF-CEM
NCI-H460 = test system: NCI-H460
SW-620 = test system: SW-620
NCI-H522 = test system: NCI-H522
Malme-3M = test system: Malme-3M
HL-60 = test system: HL-60

Measured: GI50

CCOC(=O)/C=C(\C(=O)OCC)n1cc(C)c(=O)n(Cc2cn(COCCOC(C)=O)nn2)c1=O
inactive: COLO 205 2.86 µM | TK-10 4.97 µM | T47D 21.3 µM | ACHN 7.62 µM | OVCAR-5 14.5 µM | HCT-116 20.5 µM | MCF7 6.78 µM | EKVX 10.5 µM | UACC-62 17.8 µM | UO-31 14 µM | MDA-MB-231 20.1 µM | OVCAR-4 23.3 µM | DU-145 34.9 µM | CCRF-CEM 1.85 µM | NCI-H460 10.2 µM | SW-620 2.94 µM

Nc1nc(Cl)cc(NC23CC4CC(CC(C4)C2)C3)n1
inactive: COLO 205 81.8 µM | T47D > 100 µM | ACHN > 100 µM | NCI-H522 31 µM | OVCAR-5 > 100 µM | HCT-116 78.2 µM | MCF7 85.9 µM | EKVX > 100 µM | UACC-62 > 100 µM | UO-31 > 100 µM | MDA-MB-231 94.6 µM | OVCAR-4 > 100 µM | DU-145 > 100 µM | CCRF-CEM > 100 µM | NCI-H460 > 100 µM | SW-620 > 100 µM | Malme-3M 44.1 µM

COP(=O)(CP(=O)(OC)OCCC(C)CCC=C(C)C)OC (centres undefined)
inactive: COLO 205 > 100 µM | TK-10 > 100 µM | T47D > 100 µM | ACHN > 100 µM | NCI-H522 > 100 µM | OVCAR-5 > 100 µM | HCT-116 > 100 µM | MCF7 > 100 µM | EKVX > 100 µM | UO-31 > 100 µM | MDA-MB-231 19.1 µM | OVCAR-4 > 100 µM | CCRF-CEM > 100 µM | NCI-H460 > 100 µM | SW-620 > 100 µM | Malme-3M > 100 µM

OCC1OC(N2CCN(C3OC(CO)C(O)C(O)C3O)CC2)C(O)C(O)C1O (centres undefined)
inactive: COLO 205 > 100 µM | TK-10 > 100 µM | T47D > 100 µM | ACHN > 100 µM | NCI-H522 > 100 µM | OVCAR-5 > 100 µM | HCT-116 > 100 µM | MCF7 > 100 µM | EKVX > 100 µM | UACC-62 > 100 µM | UO-31 > 100 µM | MDA-MB-231 > 100 µM | OVCAR-4 > 100 µM | DU-145 > 100 µM | NCI-H460 > 100 µM | SW-620 > 100 µM | Malme-3M > 100 µM

C(=N\c1ccc(-c2nc3ccccc3o2)cc1)/c1ccco1
inactive: COLO 205 37.7 µM | T47D 38.6 µM | ACHN 49.7 µM | NCI-H522 44.2 µM | OVCAR-5 > 100 µM | HCT-116 59.6 µM | MCF7 91.2 µM | EKVX 48.3 µM | UO-31 41.4 µM | OVCAR-4 57.4 µM | DU-145 75 µM | SW-620 > 100 µM | Malme-3M 82.2 µM

OCCCCn1cc(Cn2ncc3c(NCc4ccccc4)ncnc32)nn1
inactive: COLO 205 > 100 µM | TK-10 > 100 µM | T47D 66.1 µM | ACHN > 100 µM | NCI-H522 > 100 µM | OVCAR-5 > 100 µM | HCT-116 > 100 µM | MCF7 > 100 µM | EKVX > 100 µM | UACC-62 > 100 µM | UO-31 > 100 µM | MDA-MB-231 > 100 µM | OVCAR-4 > 100 µM | DU-145 > 100 µM | CCRF-CEM > 100 µM | NCI-H460 > 100 µM | SW-620 > 100 µM | Malme-3M > 100 µM

COc1cc(OC)nc(Nc2c(C#N)c3nc4ccccc4n3c3ccccc23)n1
inactive: COLO 205 > 100 µM | TK-10 26.5 µM | T47D > 100 µM | HL-60 > 100 µM | ACHN 18.7 µM | NCI-H522 19.2 µM | OVCAR-5 > 100 µM | HCT-116 29.6 µM | MCF7 22.2 µM | EKVX 72.3 µM | UACC-62 37.1 µM | UO-31 53.1 µM | OVCAR-4 22.3 µM | DU-145 > 100 µM | CCRF-CEM > 100 µM | NCI-H460 43 µM | SW-620 > 100 µM

COC(=O)c1ccc(C(=O)NC(Cc2ccc(Oc3cc(CC(NC(=O)c4ccccc4C(=O)OC)C(=O)OC)ccc3OC)cc2)C(=O)OC)cc1 (centres undefined)
inactive: COLO 205 > 100 µM | TK-10 > 100 µM | T47D > 100 µM | HL-60 > 100 µM | ACHN > 100 µM | OVCAR-5 > 100 µM | HCT-116 > 100 µM | MCF7 67.5 µM | EKVX > 100 µM | UO-31 > 100 µM | OVCAR-4 > 100 µM | DU-145 > 100 µM | CCRF-CEM > 100 µM | NCI-H460 > 100 µM | SW-620 > 100 µM | Malme-3M > 100 µM

O=c1[nH]nc(Cc2ccccc2)n1CCO
inactive: COLO 205 > 100 µM | TK-10 > 100 µM | T47D > 100 µM | ACHN > 100 µM | NCI-H522 > 100 µM | OVCAR-5 > 100 µM | HCT-116 > 100 µM | MCF7 > 100 µM | EKVX > 100 µM | UACC-62 > 100 µM | UO-31 > 100 µM | MDA-MB-231 > 100 µM | OVCAR-4 > 100 µM | DU-145 > 100 µM | NCI-H460 > 100 µM | SW-620 > 100 µM | Malme-3M > 100 µM

CC(N)Cc1ccc(F)cc1 (centres undefined)
inactive: COLO 205 > 100 µM | TK-10 > 100 µM | HL-60 > 100 µM | ACHN > 100 µM | NCI-H522 > 100 µM | OVCAR-5 > 100 µM | HCT-116 > 100 µM | EKVX > 100 µM | UACC-62 > 100 µM | UO-31 > 100 µM | OVCAR-4 > 100 µM | CCRF-CEM > 100 µM | NCI-H460 > 100 µM | SW-620 > 100 µM | Malme-3M > 100 µM

CC(=O)OCC(=O)OC[C@H](OCc1ccccc1)[C@@H]1[C@H](OC(C)=O)C(=O)N1Cc1ccccc1
inactive: COLO 205 > 100 µM | TK-10 > 100 µM | ACHN > 100 µM | OVCAR-5 > 100 µM | HCT-116 > 100 µM | MCF7 > 100 µM | EKVX > 100 µM | UACC-62 > 100 µM | UO-31 > 100 µM | MDA-MB-231 > 100 µM | OVCAR-4 > 100 µM | DU-145 > 100 µM | CCRF-CEM > 100 µM | SW-620 > 100 µM | Malme-3M > 100 µM

CCOC(=O)N1CCN(Cc2cc(=O)n3cc(C)ccc3n2)CC1
inactive: COLO 205 > 100 µM | TK-10 > 100 µM | HL-60 > 100 µM | ACHN > 100 µM | NCI-H522 > 100 µM | OVCAR-5 > 100 µM | HCT-116 > 100 µM | MCF7 > 100 µM | EKVX > 100 µM | UACC-62 > 100 µM | UO-31 > 100 µM | MDA-MB-231 > 100 µM | OVCAR-4 > 100 µM | DU-145 > 100 µM | CCRF-CEM > 100 µM | NCI-H460 > 100 µM | SW-620 > 100 µM | Malme-3M > 100 µM

Cc1cc2c(cc1Cl)Sc1n[nH]c(=O)n1S2(=O)=O
inactive: COLO 205 > 100 µM | TK-10 > 100 µM | HL-60 > 100 µM | ACHN > 100 µM | NCI-H522 87.5 µM | OVCAR-5 > 100 µM | HCT-116 > 100 µM | MCF7 > 100 µM | EKVX > 100 µM | UACC-62 > 100 µM | UO-31 > 100 µM | MDA-MB-231 > 100 µM | OVCAR-4 > 100 µM | DU-145 > 100 µM | CCRF-CEM > 100 µM | NCI-H460 > 100 µM | SW-620 > 100 µM | Malme-3M 40.6 µM

O=c1[nH]nc(Cc2ccccc2)n1/N=C/c1ccco1
inactive: COLO 205 > 100 µM | T47D > 100 µM | ACHN > 100 µM | OVCAR-5 80 µM | HCT-116 > 100 µM | MCF7 48.1 µM | EKVX > 100 µM | UACC-62 > 100 µM | UO-31 > 100 µM | MDA-MB-231 > 100 µM | OVCAR-4 > 100 µM | DU-145 > 100 µM | CCRF-CEM > 100 µM | NCI-H460 > 100 µM | SW-620 > 100 µM | Malme-3M > 100 µM

COc1ccc(NC(=S)Nc2c(C)n(C)n(-c3ccccc3)c2=O)cc1
inactive: COLO 205 > 100 µM | TK-10 > 100 µM | HL-60 > 100 µM | ACHN > 100 µM | NCI-H522 > 100 µM | OVCAR-5 > 100 µM | HCT-116 > 100 µM | MCF7 > 100 µM | EKVX > 100 µM | UACC-62 > 100 µM | UO-31 > 100 µM | MDA-MB-231 > 100 µM | DU-145 > 100 µM | CCRF-CEM > 100 µM | NCI-H460 > 100 µM | SW-620 > 100 µM | Malme-3M > 100 µM

C[n+]1ccccc1/C1=c2\cc/c([nH]2)=C(\c2cccc[n+]2C)C2=N/C(=C(/c3cccc[n+]3C)C3C=CC(N3)/C(c3cccc[n+]3C)=C3/C=CC1=N3)C=C2
inactive: COLO 205 75.2 µM | TK-10 > 100 µM | T47D > 100 µM | HL-60 > 100 µM | ACHN > 100 µM | NCI-H522 > 100 µM | OVCAR-5 > 100 µM | HCT-116 46.3 µM | MCF7 > 100 µM | EKVX > 100 µM | UACC-62 > 100 µM | UO-31 > 100 µM | OVCAR-4 > 100 µM | DU-145 > 100 µM | CCRF-CEM 3.26 µM | NCI-H460 40.9 µM | SW-620 73.3 µM | Malme-3M > 100 µM
